From publication PMC4515084 (Chemmedchem, 2015)

Key:
[1] = biological target: porcine pancreatic elastase (PPE) (Sus scrofa, UniProt P00772); experiment: Serine protease selectivity: PPE; assay type: biochemical; details: listed as BAY 85-8501
[2] = system: HNE-induced acute lung injury in mice; experiment: HNE-induced acute lung injury; assay type: in vivo, mouse; details: administered 1 h prior to the HNE noxa
[3] = Pharmacokinetic studies in rats
[4] = system: PPE-induced acute lung injury in mice; experiment: PPE-induced acute lung injury; assay type: in vivo, mouse; details: PPE noxa
[5] = biological target: human CYP 3A4 (Homo sapiens, UniProt P08684); experiment: CYP inhibition assay, pooled human liver microsomes, midazolam substrate; assay type: in vitro ADME
[6] = biological target: human CYP 2C9 (Homo sapiens, UniProt P11712); experiment: CYP inhibition assay, pooled human liver microsomes, diclofenac substrate; assay type: in vitro ADME
[7] = Solubility; assay type: physicochemical

Sequence of human CYP 2C9 (P11712 whole entry): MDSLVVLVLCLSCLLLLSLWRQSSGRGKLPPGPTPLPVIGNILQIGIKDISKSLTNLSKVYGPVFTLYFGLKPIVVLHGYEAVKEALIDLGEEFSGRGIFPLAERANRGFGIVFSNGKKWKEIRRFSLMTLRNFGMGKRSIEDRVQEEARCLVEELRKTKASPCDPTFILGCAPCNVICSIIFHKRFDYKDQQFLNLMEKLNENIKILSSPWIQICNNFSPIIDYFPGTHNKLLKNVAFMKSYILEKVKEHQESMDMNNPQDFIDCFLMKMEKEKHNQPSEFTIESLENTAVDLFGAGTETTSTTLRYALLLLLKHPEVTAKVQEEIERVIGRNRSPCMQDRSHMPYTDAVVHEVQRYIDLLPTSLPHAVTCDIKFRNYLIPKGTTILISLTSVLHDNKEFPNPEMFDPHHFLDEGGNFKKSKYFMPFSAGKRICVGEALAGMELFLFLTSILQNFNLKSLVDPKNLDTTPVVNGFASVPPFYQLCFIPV
Sequence of porcine pancreatic elastase (PPE) (P00772 27-266): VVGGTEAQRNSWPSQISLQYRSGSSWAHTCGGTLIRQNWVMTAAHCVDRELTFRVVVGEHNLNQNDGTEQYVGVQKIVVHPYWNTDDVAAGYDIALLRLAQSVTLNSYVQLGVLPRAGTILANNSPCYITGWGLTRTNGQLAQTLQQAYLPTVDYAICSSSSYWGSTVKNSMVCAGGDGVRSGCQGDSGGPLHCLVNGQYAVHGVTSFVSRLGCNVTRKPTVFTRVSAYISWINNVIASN
Sequence of human CYP 3A4 (P08684 whole entry): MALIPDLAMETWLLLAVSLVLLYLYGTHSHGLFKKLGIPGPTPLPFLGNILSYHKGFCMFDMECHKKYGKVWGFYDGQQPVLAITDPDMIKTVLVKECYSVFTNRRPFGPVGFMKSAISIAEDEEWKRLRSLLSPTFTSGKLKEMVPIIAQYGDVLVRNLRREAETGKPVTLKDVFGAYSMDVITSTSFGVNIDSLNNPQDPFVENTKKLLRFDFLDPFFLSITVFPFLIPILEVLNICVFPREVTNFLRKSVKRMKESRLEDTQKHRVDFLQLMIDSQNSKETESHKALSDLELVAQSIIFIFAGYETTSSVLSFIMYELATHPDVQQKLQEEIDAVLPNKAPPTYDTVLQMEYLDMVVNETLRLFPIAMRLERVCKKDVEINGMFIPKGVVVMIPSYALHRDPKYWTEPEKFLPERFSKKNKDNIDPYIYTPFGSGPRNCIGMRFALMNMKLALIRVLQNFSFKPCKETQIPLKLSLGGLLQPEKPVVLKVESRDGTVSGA

CC1=C(C#N)[C@@H](c2ccc(C#N)cc2S(C)(=O)=O)N(C)C(=O)N1c1cccc(C(F)(F)F)c1 [Compound 29, (4S)-4-[4-Cyano-2-(methylsulfonyl)phenyl]-3,6-dimethyl-2-oxo-1-[3-(trifluoromethyl)phenyl]-1,2,3,4-tetrahydropyrimidine-5-carbonitrile]
effect on PPE [1]: no inhibitory effect | development of lung injury and subsequent inflammation [2]: completely prevented | clearance ([3]; rat, in vivo, iv, 0.3 mg kg^−1): 8.33 mL/min/kg | primary lung injury [4]: could not prevent

CC1=C(C#N)[C@@H](c2ccc(C#N)cc2)N(CC(N)=O)C(=O)N1c1cccc(C(F)(F)F)c1 [Compound 23]
inhibition toward CYP 3A4 ([5]; up to a concentration of 50 μM): no observable inhibition | inhibition toward CYP 2C9 ([6]; up to a concentration of 50 μM): no observable inhibition

CC1=C(C#N)[C@@H](c2ccc(C#N)cc2S(C)(=N)=O)N(C)C(=O)N1c1cccc(C(F)(F)F)c1 (stereo partly shown) [Compound 30]
solubility [7]: improved solubility | IC50 [5]: > 50 µM | IC50 [6]: > 50 µM

CC1=C(C(=O)OCCO)[C@@H](c2ccc(C#N)cc2)NC(=O)N1c1cccc(C(F)(F)F)c1 [Compound 17]
clearance ([3]; rat, in vivo, iv, 0.3 mg kg^−1): 35 mL/min/kg | clearance ([3]; rodents / rats): medium clearance

CC(=O)C1=C(C)N(c2cccc(C(F)(F)F)c2)C(=O)N[C@@H]1c1ccc(C#N)nc1 [Compound 20]
clearance ([3]; rat, in vivo, iv, 0.3 mg kg^−1): 33.3 mL/min/kg | clearance ([3]; rodents / rats): medium clearance
